Experimental data published in patent publication US8802895B2, “Amide derivatives of benzene-sulfonanilide, pharmaceutical composition thereof and method for cancer treatment using the same” (Cleveland State University, priority 2010, dated 2014).

Tests used:
Format in all cases: cell-based
MALME-3M = assay: NCIDTP 60 cancer cell lines screening, Melanoma panel
MCF7 = assay: NCIDTP 60 cancer cell lines screening, Breast Cancer panel
NCI-H23 = assay: NCIDTP 60 cancer cell lines screening, Non-Small Cell Lung Cancer panel
HOP-92 = assay: as above
COLO 205 = assay: NCIDTP 60 cancer cell lines screening, Colon Cancer panel
HOP-62 = assay: NCIDTP 60 cancer cell lines screening, Non-Small Cell Lung Cancer panel
MOLT-4 = assay: NCIDTP 60 cancer cell lines screening, Leukemia panel
OVCAR-5 = assay: NCIDTP 60 cancer cell lines screening, Ovarian Cancer panel
MDA-MB-231/ATCC = assay: NCIDTP 60 cancer cell lines screening, Breast Cancer panel
MDA-MB-468 = assay: as above
SK-OV-3 = assay: NCIDTP 60 cancer cell lines screening, Ovarian Cancer panel
NCI-H322M = assay: NCIDTP 60 cancer cell lines screening, Non-Small Cell Lung Cancer panel
DU-145 = assay: NCIDTP 60 cancer cell lines screening, Prostate Cancer panel
T-47D = assay: NCIDTP 60 cancer cell lines screening, Breast Cancer panel
HCT-116 = assay: NCIDTP 60 cancer cell lines screening, Colon Cancer panel
BT-549 = assay: NCIDTP 60 cancer cell lines screening, Breast Cancer panel
MDA-MB-435 = assay: NCIDTP 60 cancer cell lines screening, Melanoma panel

## Cc1ccc(C)c(COc2cc(NC(=O)c3ccc4c(c3)OCO4)ccc2N(C)S(C)(=O)=O)c1 [Compound #10, Benzo[1,3]dioxole-5-carboxylic acid [3-(2,5-dimethyl-benzyloxy)-4-(methanesulfonyl-methyl-amino)-phenyl]-amide]
MALME-3M; Homo sapiens, Malme-3M
  GI50: 0.229 µM
MALME-3M; Homo sapiens, Malme-3M, read-out: LC50
  CC50: > 100 µM
MALME-3M; MALME-3M
  TGI: >1.00E−4 Molar
MALME-3M; MALME-3M, Log10 Concentration −4.0 Molar
  Percent Growth: 49%
MALME-3M; MALME-3M, Log10 Concentration −5.0 Molar
  Percent Growth: 40%
MALME-3M; MALME-3M, Log10 Concentration −6.0 Molar
  Percent Growth: 31%
MALME-3M; MALME-3M, Log10 Concentration −7.0 Molar
  Percent Growth: 61%
MALME-3M; MALME-3M, Log10 Concentration −8.0 Molar
  Percent Growth: 87%
MCF7; Homo sapiens, MCF7
  GI50: 0.12 µM
MCF7; Homo sapiens, MCF7, read-out: LC50
  CC50: > 100 µM
MCF7; MCF7
  TGI: >1.00E−4 Molar
MCF7; MCF7, Log10 Concentration −4.0 Molar
  Percent Growth: 7%
MCF7; MCF7, Log10 Concentration −5.0 Molar
  Percent Growth: 10%
MCF7; MCF7, Log10 Concentration −6.0 Molar
  Percent Growth: 16%
MCF7; MCF7, Log10 Concentration −7.0 Molar
  Percent Growth: 53%
MCF7; MCF7, Log10 Concentration −8.0 Molar
  Percent Growth: 92%
NCI-H23; Homo sapiens, NCI-H23
  GI50: 0.162 µM
NCI-H23; Homo sapiens, NCI-H23, read-out: LC50
  CC50: > 100 µM
NCI-H23; NCI-H23
  TGI: >1.00E−4 Molar
NCI-H23; NCI-H23, Log10 Concentration −4.0 Molar
  Percent Growth: 2%
NCI-H23; NCI-H23, Log10 Concentration −5.0 Molar
  Percent Growth: 3%
NCI-H23; NCI-H23, Log10 Concentration −6.0 Molar
  Percent Growth: 5%
NCI-H23; NCI-H23, Log10 Concentration −7.0 Molar
  Percent Growth: 62%
NCI-H23; NCI-H23, Log10 Concentration −8.0 Molar
  Percent Growth: 97%
HOP-92; HOP-92
  TGI: >1.00E−4 Molar
HOP-92; HOP-92, Log10 Concentration −4.0 Molar
  Percent Growth: 37%
HOP-92; HOP-92, Log10 Concentration −5.0 Molar
  Percent Growth: 39%
HOP-92; HOP-92, Log10 Concentration −6.0 Molar
  Percent Growth: 62%
HOP-92; HOP-92, Log10 Concentration −7.0 Molar
  Percent Growth: 62%
HOP-92; HOP-92, Log10 Concentration −8.0 Molar
  Percent Growth: 78%
HOP-92; Homo sapiens, HOP-92
  GI50: 0.0322 µM
HOP-92; Homo sapiens, HOP-92, read-out: LC50
  CC50: > 100 µM
COLO 205; COLO 205
  TGI: 1.07E−6 Molar
COLO 205; COLO 205, Log10 Concentration −4.0 Molar
  Percent Growth: −33%
COLO 205; COLO 205, Log10 Concentration −5.0 Molar
  Percent Growth: −41%
COLO 205; COLO 205, Log10 Concentration −6.0 Molar
  Percent Growth: 1%
COLO 205; COLO 205, Log10 Concentration −7.0 Molar
  Percent Growth: 99%
COLO 205; COLO 205, Log10 Concentration −8.0 Molar
  Percent Growth: 105%
COLO 205; Homo sapiens, COLO 205
  GI50: 0.318 µM
COLO 205; Homo sapiens, COLO 205, read-out: LC50
  CC50: > 100 µM
HOP-62; HOP-62
  TGI: >1.00E−4 Molar
HOP-62; HOP-62, Log10 Concentration −4.0 Molar
  Percent Growth: 19%
HOP-62; HOP-62, Log10 Concentration −5.0 Molar
  Percent Growth: 18%
HOP-62; HOP-62, Log10 Concentration −6.0 Molar
  Percent Growth: 18%
HOP-62; HOP-62, Log10 Concentration −7.0 Molar
  Percent Growth: 84%
HOP-62; HOP-62, Log10 Concentration −8.0 Molar
  Percent Growth: 102%
HOP-62; Homo sapiens, HOP-62
  GI50: 0.329 µM
HOP-62; Homo sapiens, HOP-62, read-out: LC50
  CC50: > 100 µM
MOLT-4; Homo sapiens, MOLT-4
  GI50: 0.163 µM
MOLT-4; Homo sapiens, MOLT-4, read-out: LC50
  CC50: > 100 µM
MOLT-4; MOLT-4
  TGI: >1.00E−4 Molar
MOLT-4; MOLT-4, Log10 Concentration −4.0 Molar
  Percent Growth: 13%
MOLT-4; MOLT-4, Log10 Concentration −5.0 Molar
  Percent Growth: 7%
MOLT-4; MOLT-4, Log10 Concentration −6.0 Molar
  Percent Growth: 12%
MOLT-4; MOLT-4, Log10 Concentration −7.0 Molar
  Percent Growth: 80%
MOLT-4; MOLT-4, Log10 Concentration −8.0 Molar
  Percent Growth: 99%
OVCAR-5; Homo sapiens, OVCAR-5
  GI50: 0.538 µM
OVCAR-5; Homo sapiens, OVCAR-5, read-out: LC50
  CC50: > 100 µM
OVCAR-5; OVCAR-5
  TGI: >1.00E−4 Molar
OVCAR-5; OVCAR-5, Log10 Concentration −4.0 Molar
  Percent Growth: 25%
OVCAR-5; OVCAR-5, Log10 Concentration −5.0 Molar
  Percent Growth: 33%
OVCAR-5; OVCAR-5, Log10 Concentration −6.0 Molar
  Percent Growth: 37%
OVCAR-5; OVCAR-5, Log10 Concentration −7.0 Molar
  Percent Growth: 85%
OVCAR-5; OVCAR-5, Log10 Concentration −8.0 Molar
  Percent Growth: 85%
MDA-MB-231/ATCC; Homo sapiens, MDA-MB-231, read-out: LC50
  CC50: > 100 µM
MDA-MB-231/ATCC; Homo sapiens, MDA-MB-231/ATCC
  GI50: 0.256 µM
MDA-MB-231/ATCC; MDA-MB-231/ATCC
  TGI: 9.26E−7 Molar
MDA-MB-231/ATCC; MDA-MB-231/ATCC, Log10 Concentration −4.0 Molar
  Percent Growth: −7%
MDA-MB-231/ATCC; MDA-MB-231/ATCC, Log10 Concentration −5.0 Molar
  Percent Growth: −17%
MDA-MB-231/ATCC; MDA-MB-231/ATCC, Log10 Concentration −6.0 Molar
  Percent Growth: −3%
MDA-MB-231/ATCC; MDA-MB-231/ATCC, Log10 Concentration −7.0 Molar
  Percent Growth: 87%
MDA-MB-231/ATCC; MDA-MB-231/ATCC, Log10 Concentration −8.0 Molar
  Percent Growth: 90%
MDA-MB-468; Homo sapiens, MDA-MB-468
  GI50: 0.155 µM
MDA-MB-468; Homo sapiens, MDA-MB-468, read-out: LC50
  CC50: 19.9 µM
MDA-MB-468; MDA-MB-468
  TGI: 4.01E−7 Molar
MDA-MB-468; MDA-MB-468, Log10 Concentration −4.0 Molar
  Percent Growth: −56%
MDA-MB-468; MDA-MB-468, Log10 Concentration −5.0 Molar
  Percent Growth: −47%
MDA-MB-468; MDA-MB-468, Log10 Concentration −6.0 Molar
  Percent Growth: −48%
MDA-MB-468; MDA-MB-468, Log10 Concentration −7.0 Molar
  Percent Growth: 73%
MDA-MB-468; MDA-MB-468, Log10 Concentration −8.0 Molar
  Percent Growth: 85%
SK-OV-3; Homo sapiens, SK-OV-3
  GI50: 0.285 µM
SK-OV-3; Homo sapiens, SK-OV-3, read-out: LC50
  CC50: > 100 µM
SK-OV-3; SK-OV-3
  TGI: >1.00E−4 Molar
SK-OV-3; SK-OV-3, Log10 Concentration −4.0 Molar
  Percent Growth: 5%
SK-OV-3; SK-OV-3, Log10 Concentration −5.0 Molar
  Percent Growth: 5%
SK-OV-3; SK-OV-3, Log10 Concentration −6.0 Molar
  Percent Growth: 8%
SK-OV-3; SK-OV-3, Log10 Concentration −7.0 Molar
  Percent Growth: 85%
SK-OV-3; SK-OV-3, Log10 Concentration −8.0 Molar
  Percent Growth: 99%
NCI-H322M
  TGI: >1.00E−4 Molar
NCI-H322M; Homo sapiens
  GI50: 0.468 µM
NCI-H322M; Homo sapiens, read-out: LC50
  CC50: > 100 µM
NCI-H322M; Log10 Concentration −4.0 Molar
  Percent Growth: 28%
NCI-H322M; Log10 Concentration −5.0 Molar
  Percent Growth: 26%
NCI-H322M; Log10 Concentration −6.0 Molar
  Percent Growth: 30%
NCI-H322M; Log10 Concentration −7.0 Molar
  Percent Growth: 91%
NCI-H322M; Log10 Concentration −8.0 Molar
  Percent Growth: 94%
DU-145; DU-145
  TGI: 4.57E−7 Molar
DU-145; DU-145, Log10 Concentration −4.0 Molar
  Percent Growth: −28%
DU-145; DU-145, Log10 Concentration −5.0 Molar
  Percent Growth: −39%
DU-145; DU-145, Log10 Concentration −6.0 Molar
  Percent Growth: −37%
DU-145; DU-145, Log10 Concentration −7.0 Molar
  Percent Growth: 72%
DU-145; DU-145, Log10 Concentration −8.0 Molar
  Percent Growth: 96%
DU-145; Homo sapiens, DU-145
  GI50: 0.159 µM
DU-145; Homo sapiens, DU-145, read-out: LC50
  CC50: > 100 µM
T-47D; Homo sapiens, T47D, read-out: LC50
  CC50: > 100 µM
T-47D; Homo sapiens, T47D, T-47D
  GI50: 0.682 µM
T-47D; T-47D
  TGI: >1.00E−4 Molar
T-47D; T-47D, Log10 Concentration −4.0 Molar
  Percent Growth: 27%
T-47D; T-47D, Log10 Concentration −5.0 Molar
  Percent Growth: 29%
T-47D; T-47D, Log10 Concentration −6.0 Molar
  Percent Growth: 45%
T-47D; T-47D, Log10 Concentration −7.0 Molar
  Percent Growth: 77%
T-47D; T-47D, Log10 Concentration −8.0 Molar
  Percent Growth: 89%
HCT-116; HCT-116
  TGI: 1.02E−6 Molar
HCT-116; HCT-116, Log10 Concentration −4.0 Molar
  Percent Growth: −47%
HCT-116; HCT-116, Log10 Concentration −5.0 Molar
  Percent Growth: −47%
HCT-116; HCT-116, Log10 Concentration −7.0 Molar
  Percent Growth: 45%
HCT-116; HCT-116, Log10 Concentration −8.0 Molar
  Percent Growth: 89%
HCT-116; Homo sapiens, HCT-116
  GI50: 0.0753 µM
HCT-116; Homo sapiens, HCT-116, read-out: LC50
  CC50: > 100 µM
BT-549; BT-549
  TGI: >1.00E−4 Molar
BT-549; BT-549, Log10 Concentration −4.0 Molar
  Percent Growth: 21%
BT-549; BT-549, Log10 Concentration −5.0 Molar
  Percent Growth: 13%
BT-549; BT-549, Log10 Concentration −6.0 Molar
  Percent Growth: 45%
BT-549; BT-549, Log10 Concentration −7.0 Molar
  Percent Growth: 70%
BT-549; BT-549, Log10 Concentration −8.0 Molar
  Percent Growth: 92%
BT-549; Homo sapiens, BT-549
  GI50: 0.656 µM
BT-549; Homo sapiens, BT-549, read-out: LC50
  CC50: > 100 µM
MDA-MB-435; Homo sapiens, MDA-MB-435
  GI50: 0.0285 µM
MDA-MB-435; Homo sapiens, MDA-MB-435, read-out: LC50
  CC50: > 100 µM
MDA-MB-435; MDA-MB-435
  TGI: 9.14E−8 Molar
MDA-MB-435; MDA-MB-435, Log10 Concentration −4.0 Molar
  Percent Growth: −17%
MDA-MB-435; MDA-MB-435, Log10 Concentration −5.0 Molar
  Percent Growth: −28%
MDA-MB-435; MDA-MB-435, Log10 Concentration −6.0 Molar
  Percent Growth: −30%
MDA-MB-435; MDA-MB-435, Log10 Concentration −7.0 Molar
  Percent Growth: −4%
MDA-MB-435; MDA-MB-435, Log10 Concentration −8.0 Molar
  Percent Growth: 95%
